Literature values in patent publication US7833744B2, “Methods to evaluate cytochrome P450 2C19 isoenzyme activity using a breath test” (Cambridge Isotope Laboratories, Inc., priority 2006, dated 2010).

Columns and labels:
[1] = test system: CYP2C19; conditions: PMs vs EMs
[2] = target: CYP2C19 (Homo sapiens, UniProt P33261); conditions: in EMs
[3] = test system: platelets; conditions: healthy volunteers who carry CYP2C19*2 compared to CYP2C19*1*1 genotype

CYP2C19 (Homo sapiens, UniProt P33261), sequence (P33261 whole entry): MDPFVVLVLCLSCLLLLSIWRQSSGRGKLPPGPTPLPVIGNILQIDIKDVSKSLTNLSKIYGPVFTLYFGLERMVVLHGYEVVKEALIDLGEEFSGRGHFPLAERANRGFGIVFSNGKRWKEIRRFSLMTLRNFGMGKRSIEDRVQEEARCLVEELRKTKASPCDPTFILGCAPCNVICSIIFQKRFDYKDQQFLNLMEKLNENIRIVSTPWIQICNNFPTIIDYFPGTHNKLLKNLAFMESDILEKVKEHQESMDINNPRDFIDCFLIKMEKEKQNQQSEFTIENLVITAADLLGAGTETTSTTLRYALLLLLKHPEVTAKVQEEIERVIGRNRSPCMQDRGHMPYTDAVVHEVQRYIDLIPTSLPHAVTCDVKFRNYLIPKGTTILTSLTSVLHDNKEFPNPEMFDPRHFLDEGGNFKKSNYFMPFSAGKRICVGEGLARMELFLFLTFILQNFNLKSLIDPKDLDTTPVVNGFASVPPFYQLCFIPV

SMILES: COc1ccnc(C[S+]([O-])c2nc3ccc(OC(F)F)cc3[nH]2)c1OC (stereo not shown) [pantoprazole]
- exposure in PMs relative to EMs of CYP2C19 [1]: about six-fold higher
- share of dose cleared by CYP2C19 [2]: approximately 80%

SMILES: COc1ccc2[nH]c([S+]([O-])Cc3ncc(C)c(OC)c3C)nc2c1 (stereo not shown) [omeprazole]
- exposure in PMs relative to EMs of CYP2C19 [1]: about six-fold higher
- share of dose cleared by CYP2C19 [2]: approximately 80%

SMILES: COC(=O)[C@H](c1ccccc1Cl)N1CCc2sccc2C1 [clopidogrel]
- anti-platelet effect [3]: no anti-platelet effect

SMILES: Cc1c(OCC(F)(F)F)ccnc1C[S+]([O-])c1nc2ccccc2[nH]1 (stereo not shown) [lansoprazole]
- exposure in PMs relative to EMs of CYP2C19 [1]: about six-fold higher
- share of dose cleared by CYP2C19 [2]: approximately 80%
